ChEMBL document CHEMBL3507680, “University of Dundee, Gates Library screen for HepG2 cell viability”

Assay: Human HepG2 cell viability assay in 384 well format
Assay type: toxicity, cell-based
Set-up: dose 125 nL, time 70.5 hour; cytotoxicity at 70.5 h: concentration not given beside the values
Settings: HepG2 cells, read-out: Inhibition

Row | SMILES | cytotoxicity at 70.5 h
1 | COCCN(C)[C@@H]1c2ccccc2C2(CCNCC2)[C@H]1O | -4.67%
2 | CCOC1COC2(CCN(S(=O)(=O)c3cccc(F)c3)CC2)C1 (stereo not drawn) | -15.5%
3 | CC(=O)N[C@@H]1CN(C2CCN(c3cccc(C)c3C)CC2)C[C@H]1C(C)C | -5.59%
4 | Cc1cc(C2CCCN(CCNS(=O)(=O)c3ccccc3)C2)n[nH]1 (stereo not drawn) | 24.5%
5 | Cc1cc(S(C)(=O)=O)c(C)c(S(=O)(=O)NC2CCCC2)c1 | -8.42%
6 | CSC(C)(C)CNC(=O)NC1CCSCC1 | -6.55%
7 | CS(=O)(=O)c1cncnc1C1CCCN(C(=O)Cc2ccccc2F)C1 (stereo not drawn) | -7.69%
8 | CC(O)(CNC(=O)NCCc1ccc2c(c1)CCO2)c1ccccc1 (stereo not drawn) | -0.353%
9 | O=C(CS(=O)(=O)C1CCCC1)NC1CCc2nccn2C1 (stereo not drawn) | -9.54%
10 | CCS(=O)(=O)N1CCC2(CN(c3cc(OC)ncn3)C2)C1 | 12.1%
11 | O=C(NCCNc1ncccn1)N1CCCC1c1ccncc1 (stereo not drawn) | 1.65%
12 | O=C(Cn1cc(C(=O)O)ccc1=O)Nc1cc(F)ccc1F | -9.56%
13 | CCO[C@@H]1CC[C@H]2[C@H]1OCCN2C(=O)c1nn(C)c2ccccc12 | 2.67%
14 | CN(C)C(=O)CN1C[C@@H]2CC[C@H](C1)N(Cc1ccccc1OCCO)C2 | -9.08%
15 | Cc1cc(C)n(C2CN(c3nc(-c4ccncc4)nc4c3CCC4)C2)n1 | -8.99%
16 | COCc1nccc(C2CCCN(Cc3cccc(F)c3)C2)n1 (stereo not drawn) | 0.742%
17 | Cc1cc(NC(=O)N2CCN(C)CC2C)n(C)n1 (stereo not drawn) | -6.62%
18 | CC(C)n1nccc1C(=O)N1CCC(c2nnsc2S(C)(=O)=O)CC1 | -6.33%
19 | CN(C)C(=O)N1CCCn2nc(CNC(=O)CCc3cccs3)cc2C1 | 0.772%
20 | CCOc1ccc2ccccc2c1CNCC1CCNCC1 | 9.2%
21 | O=C(c1ccccc1)N1CCCn2c(CN3CCCCC3)nnc2C1 | 26.2%
22 | Cc1cnn(C2CN(CC(=O)N(C)Cc3cccs3)C2)c1 | -11.5%
23 | COCC(=O)N1Cc2nccn2CC(CN(C)Cc2cccnc2)C1 (stereo not drawn) | -7.06%

Row | SMILES | cytotoxicity at 70.5 h
24 | CCn1cc(S(=O)(=O)NCC(c2ccccc2)N2CCOCC2)c(C)n1 (stereo not drawn) | 18.1%
25 | O=C(Nc1ccc(-c2csnn2)cc1)N1CCC(N2CCCC2)C1 (stereo not drawn) | -14.2%
26 | COc1ccc(OC)c(-n2cnnc2CCN)c1 | -4.57%
27 | Cc1cc(Cc2ccccc2F)cc(C2CCCNC2)n1 (stereo not drawn) | -1.65%
28 | NC(=O)c1cnc(NC2CCC(c3ccccc3)CC2)c(Cl)c1 (stereo not drawn) | -2.31%
29 | CCn1cc(NC(=O)NCC2(N3CCOCC3)CCSC2)cn1 (stereo not drawn) | -1.94%
30 | O=C(O)c1ccccc1-c1ccc(CN2CC(c3ccncn3)C2)o1 | -5.44%
31 | CN(C)C(=O)[C@H]1C[C@H]2OCC[C@H]2N(Cc2ccc3ccccc3n2)C1 | 17.2%
32 | CC(=O)Nc1cnc(Oc2ccccc2F)nc1 | -5.65%
33 | Cc1cn2c(n1)CCC(NC(=O)c1cnc(C)nc1C(C)C)C2 (stereo not drawn) | -9%
34 | Cc1cc(CN2C[C@@H]3COC[C@H](C(=O)N4CCCCO4)[C@@H]3C2)no1 | -11.3%
35 | N#Cc1ccc(NCc2cccc(OCC3CCCO3)c2)nc1 (stereo not drawn) | -8.7%
36 | CN(C)[C@@H]1CCN(c2ncc(F)cn2)[C@H]1Cc1ccccc1 | -4.36%
37 | Cc1nc(C(C)NC(=O)c2cn(CCC3CCCCC3)nn2)n[nH]1 (stereo not drawn) | -23.9%
38 | CC(C)CN1CCCn2nc(CNC(=O)c3cccnc3O)cc2C1 | 14.1%
39 | CC1CCN(CCNC(=O)C2CCN(C(=O)C(C)(C)C)CC2)CC1 | -3.74%
40 | Cc1occc(=O)c1OCC(=O)N1CCc2ccccc2C1 | 7.13%
41 | Cc1nccc(C(=O)N2CCOC(c3nc(C(C)C)n[nH]3)C2)n1 (stereo not drawn) | -5.71%
42 | COC1(CNC(=O)NCCc2ccccc2)CCSC1 (stereo not drawn) | 15.9%
43 | CN(Cc1cc(C(C)(C)C)n[nH]1)C(=O)CCC(=O)NC1CCCC1 | -9.2%
44 | CCN(C)C(=O)Cn1c(-c2ccco2)nn(-c2ccccc2OC)c1=O | 0.98%
45 | CSC(CNS(C)(=O)=O)c1cccc(Cl)c1 (stereo not drawn) | 24%
46 | Cc1nc(C)n(CC2CCCN2Cc2cn3c(C)cccc3n2)n1 (stereo not drawn) | -4.2%

Row | SMILES | cytotoxicity at 70.5 h
47 | CCN(CC)CCNC(=O)c1nn(CC)cc1Cl | 18.6%
48 | O=C(NCCc1c[nH]c2ccccc12)C1CCC(Cn2cnnn2)CC1 (stereo not drawn) | 19.8%
49 | O=C(C1CCC1)N1CCN(c2snc3ccccc23)CC1 | 44.7%
50 | CN(C)CCN(Cc1ccccn1)C(=O)Nc1cccc(F)c1 | -9.47%
51 | CCCN(C)c1ccc(C(=O)Nc2c(C)nn(C(C)C)c2C)cc1 | -3.3%
52 | CN1CCCC(c2nccnc2-c2cccc(C(F)(F)F)c2)C1 (stereo not drawn) | -0.583%
53 | Cc1nnc(CN2CCC(Oc3ccc(C)c(C)c3)CC2)o1 | -4.89%
54 | Cc1cc(C2CCCN2C(=O)CN2C(=O)OC(C)(C)C2=O)on1 (stereo not drawn) | -2.6%
55 | CCN1CCN(c2ccc(CNC(=O)c3cnn(C)c3C)cn2)CC1 | -8.48%
56 | Cn1cnnc1CCNC(=O)c1cnn(Cc2ccccc2)c1 | -14.9%
57 | COCc1ncc(CN2CCC(Oc3ccccc3OC)CC2)cn1 | -10.9%
58 | CN(Cc1ccncc1)C(=O)c1ccc2c(c1O)OC(C)(C)C2 | -5.32%
59 | COc1cc(C2(C(=O)N3CCN(CC(C)(C)O)CC3)CC2)ccc1C | -0.73%
60 | O=C(C1CCCO1)N1CCc2nnc(Cn3cccc3)n2CC1 (stereo not drawn) | -7.61%
61 | c1cncc(CN2CCCn3nnc(COCC4CC4)c3C2)c1 | -9.26%
62 | O=C(c1ccc(-c2cccc3c2CCNC3)o1)N1CCCC1 | -9.64%
63 | CC(C)(C)c1nc(NS(=O)(=O)c2ccccc2F)no1 | -18.1%
64 | O=C(C1CCCN(c2nc3ccccc3cc2CO)C1)N1CCCC1 (stereo not drawn) | 20.7%
65 | Cn1ccnc1CNc1nccc(-c2ncnn2C)n1 | -14.8%
66 | Cn1cnc2c1CCN(Cc1nc(Cc3ccccc3)no1)C2 | -3.21%
67 | O=C(c1cc(C2CC2)[nH]n1)N1CCN(Cc2ccc3c(c2)OCO3)CC1 | -2.82%
68 | O=C(c1cc2c(s1)CCC2)N1CCC(c2cnccn2)CC1 | -6.29%
69 | c1cncc(CO[C@H]2CC[C@H]3[C@@H]2OCCN3C2CCOCC2)c1 | -2.22%

Row | SMILES | cytotoxicity at 70.5 h
70 | CN(Cc1ccoc1)C(=O)C1CCN(C(=O)C2CCCC2)CC1 | 27.9%
71 | NCCSc1nccc(-c2cnc(C3CC3)nc2-c2ccco2)n1 | 21.8%
72 | CN1CCC2(CC1)CC(NC(=O)c1csnn1)c1ccccc1O2 (stereo not drawn) | -0.343%
73 | c1ccc(C[C@H]2CN(C3CCOCC3)CC[C@H]2OCC2CC2)cc1 | -8.83%
74 | COC(=O)Cn1ccc(NS(=O)(=O)c2ccc3c(c2)CCC3)n1 | 17%
75 | COc1ccc(NCCC(=O)NCc2cccnc2N(C)C)cc1 | -8.23%
76 | CC(C(=O)N(C)C1CCCCC1)S(=O)(=O)Cc1csc(-c2cccs2)n1 (stereo not drawn) | -7.18%
77 | COc1ccc(C(=O)CCC(=O)NCc2c(C)noc2C)cc1F | 23.7%
78 | Cc1noc(C)c1CN1CCc2ncnc(-c3cccnc3)c2CC1 | -0.64%
79 | Cc1ccc(OCc2occc2C(=O)N2CCOC(C(=O)O)C2)cc1 (stereo not drawn) | 11.5%
80 | COc1cc(F)ccc1C(C(=O)O)N1CCN(C2CCCCC2)CC1 (stereo not drawn) | -4.9%
81 | COC(=O)c1cc(NC(=O)CCc2cscn2)ccc1C | -5.71%
82 | CCCC(=O)N1CCC(Nc2ncc(Br)cn2)CC1 | 0.868%
83 | Cc1cnccc1N1CCN(c2nccc(CCC(F)(F)F)n2)CC1 | -9.06%
84 | O=C1CC(c2ccc(C(=O)O)cc2)c2ncn(-c3ccccc3Cl)c2N1 (stereo not drawn) | -12.6%
85 | Nc1cc2c(nn1)CCN(C(=O)c1ccccc1Oc1cccnc1)C2 | -1.03%
86 | O=C(c1ccc(S(=O)(=O)N2CCSCC2)cc1)N1CCC(O)C1 (stereo not drawn) | -17.3%
87 | CC(C)N(CC(=O)O)Cc1cccc(Br)c1 | 2.77%
88 | CC1CC(=O)c2cc(C(=O)N3CCN(C)CC3)c(=O)[nH]c2C1 (stereo not drawn) | -5.53%
89 | Cc1c(C(=O)N2CC(=O)N(C)C2)nnn1-c1cccc2cccnc12 | -3.09%
90 | COC(=O)c1ccc(NC(C)c2ccc3c(c2)NC(=O)CO3)nn1 (stereo not drawn) | -1.28%
91 | O=C(C1=CCCC1)N1C[C@@H]2COC[C@]2(COCC2CC2)C1 | -6.62%
92 | Cc1ncsc1C(=O)NCCn1nc2ccccn2c1=O | -13.7%

Row | SMILES | cytotoxicity at 70.5 h
93 | CC(C)CN(Cc1nc2c(cnn2C)c(=O)[nH]1)C(C)C | -2.34%
94 | O=C(C1CCCN(Cc2cccc(F)c2)C1)N1CCc2sccc2C1 (stereo not drawn) | 0.518%
95 | c1ccc(CCc2n[nH]c(CCN3CCCCC3)n2)cc1 | -13.4%
96 | CC(NC(=O)NC1CCN(CC2CCCC2)CC1)c1nccs1 (stereo not drawn) | -6.39%
97 | Cc1ccccc1C(=O)NC[C@@H]1CCN(C(=O)C2(O)CCCC2)C[C@H]1O | -4.64%
98 | CN(C)C1CCCN(C(=O)c2ccc3sc4c(c3c2)CCNC4=O)CC1 (stereo not drawn) | 1.18%
99 | OCC(O)CSCc1cn(-c2ccc(F)c(Cl)c2)nn1 (stereo not drawn) | -7.46%
100 | CCn1nc(C)c2nnn(CC(=O)Nc3ccc(C)c(C)c3)c(=O)c21 | -7.31%
101 | Cc1ccc(-c2nc(CNC3CCc4ncnn4C3)no2)cc1 (stereo not drawn) | -1.3%
102 | CCN(CC)C(=O)c1ccc(Cl)c(NC(=O)c2cnc(C)cn2)c1 | -7.02%
103 | CC(=O)N1CCCc2ccc(S(=O)(=O)N3CCCCC3C)cc21 (stereo not drawn) | -3.92%
104 | Cc1c(C(=O)NC2CCCOC2)nnn1-c1ccccc1 (stereo not drawn) | 17.4%
105 | CC(C)CCNC(=O)C(c1cccc(F)c1)N(C)C (stereo not drawn) | 3.05%
106 | c1cnn(CC2CCCCN2c2ncnc3sccc23)c1 (stereo not drawn) | -6.33%
107 | N#Cc1ccc(C(=O)N2CCOC[C@H](Oc3cnccn3)C2)cc1 | -0.682%
108 | COC(=O)N1CCC(NC(=O)N2CCCC2c2ccsc2)CC1 (stereo not drawn) | -4.05%
109 | Cc1ccccc1C(O)c1ccncc1 (stereo not drawn) | -8.85%
110 | O=C1CC2(CCN(C(=O)Cc3cc4c(cc3Cl)OCCO4)C2)C(=O)N1 (stereo not drawn) | -5.25%
111 | CCc1ccc(NC(=O)N2C[C@H]3C[C@H](C(=O)NC)[C@@H](C2)O3)cc1 | 3.53%
112 | Cc1cn(Cc2ccc(F)c(F)c2)nc1N | 19.5%
113 | O=C(c1cnc(NCc2sccc2Br)c(Cl)c1)N1CCCCC1 | -9.35%
